Experiments:
Monochoria vaginalis [1] = assay: Post-emergence test experiment (Table 3, 1000 g/ha); format: in vivo; conditions: post-emergence spray, after 3 weeks, fresh weight inhibition
Outline: (§1)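 Activity graded levels 0-5 by fresh-weight inhibition (level 5 above 85%, level 0 below 5%), assessed 3 weeks after treatment. Plants grown in greenhouse pots were sprayed post-emergence at 2-3 leaves using acetone/tween-80 solutions with methyl oleate synergist (1.5 L/ha).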

Leptochloa chinensis = assay: as above; format: in vivo; conditions: post-emergence spray, after 3 weeks, fresh weight inhibition
Outline: as §1

Abutilon theophrasti = assay: as above; format: in vivo; conditions: post-emergence spray, after 3 weeks, fresh weight inhibition
Outline: as §1

Galium spurium = assay: as above; format: in vivo; conditions: post-emergence spray, after 3 weeks, fresh weight inhibition
Outline: as §1

Setaria viridis = assay: as above; format: in vivo; conditions: post-emergence spray, after 3 weeks, fresh weight inhibition
Outline: as §1

Digitaria sanguinalis = assay: as above; format: in vivo; conditions: post-emergence spray, after 3 weeks, fresh weight inhibition
Outline: as §1

rice (japonica rice) = assay: Transplanted rice safety evaluation; format: in vivo; conditions: 1000 g/ha, transplanted 3-leaf stage japonica rice, treated 5 days after transplantation, 21 days after treatment
Description: (§2) The activity level standard of harmful plants destruction (i. e. growth inhibition rate) is as follows: • Level 5: the growth inhibition rate is greater than 85%; • Level 4: the growth inhibition rate is equal to or greater than 60% and less than 85%; • Level 3: the growth inhibition rate is equal to or greater than 40% and less than 60%; • Level 2: the growth inhibition rate is equal to or greater than 20% and less than 40%; • Level 1: the growth inhibition rate is equal to or greater than 5% and less than 20%; • Level 0: the growth inhibition rate is less than 5%;
(§3) Transplanted rice safety evaluation and weed control effect evaluation in rice field:
In addition, the rice field soil that loaded into the 1/1,000,000 ha pot was leveled to keep water storage at 3-4 cm depth. The 3-leaf stage rice (japonica rice) was transplanted at 3 cm of transplanting depth the next day. The compound of the present invention was treated by the same way after 5 days of transplantation.
(§4) The fertility condition of Monochoria vaginalis 14 days and rice 21 days after the treatment of the compound of the invention with the naked eye.

Monochoria vaginalis [2] = assay: Weed control effect evaluation in rice field; format: in vivo; conditions: 1000 g/ha, paddy water application at 0.5 leaf stage, 14 days after treatment, weeds resistant to pyrazosulfuron-ethyl and penoxsulam
Description: as §2, §3
Rice field soil was loaded into a 1/1,000,000 ha pot. The seeds of Monochoria vaginalis were sowed and gently covered with soil, then left to stand still in greenhouse in the state of 0.5-1 cm of water storage. It was kept at 3-4 cm of water storage thereafter. The weeds were treated by dripping the WP or SC water diluents prepared according to the common preparation method of the compounds of the present invention with pipette homogeneously to achieve specified effective amount when Monochoria vaginalis reached 0. 5 leaf stage.
as §4
Note: The seeds of Monochoria vaginalis were collected from Heilongjing Province of China.

Indica rice = assay: Post-emergence test experiment (Table 4), crop safety; format: in vivo; conditions: after 3 weeks
Description: as §2
(§5) The above described growth inhibition rate is fresh weight inhibition rate.
(§6) Post-emergence test experiment: Monocotyledonous and dicotyledonous weed seeds and main crop seeds (i. e. wheat, corn, rice, soybean, cotton, oilseed, millet and sorghum.) were put into a plastic pot loaded with soil. Then covered with 0.5-2 cm soil, the seeds were allowed to grow in good greenhouse environment. The test plants were treated at 2-3 leaf stage 2 weeks after sowing. The test compounds of the invention were dissolved with acetone respectively, then added with tween-80, and using 1.5 liters per hectare of an emulsible concentrate of methyl oleate as a synergist, and diluted by certain amount of water to certain concentration. The solution was sprayed to the plants with a sprayer. Then the plants were cultured for 3 weeks in the greenhouse, and the experiment result of weed controlling effect after 3 weeks was listed in tables 3-4.
(§7) […] Echinochloa crusgalli and Cyperus iria were collected from Ningxia Hui Autonomous Region of China, which had evolved resistance to ALS inhibiting herbicides. • Control compound A:

Japonica rice = assay: as above; format: in vivo; conditions: after 3 weeks
Description: as §2, §5, §6, §7

[3] = tested on: ALS resistant Cyperus iria; assay: Post-emergence test experiment (Table 4), weed control; format: in vivo; conditions: after 3 weeks
Description: as §2, §5, §6, §7

[4] = tested on: ALS resistant Echinochloa crusgalli; assay: as above; format: in vivo; conditions: after 3 weeks
Description: as §2, §5, §6, §7

rice = conditions: known compound; cited from earlier work
[5] = 600 g/ha active ingredient, plus water 450 kg/ha

SMILES	Activity level (growth inhibition rate) Monochoria Vaginalis (Monochoria vaginalis [1])	Activity level (growth inhibition rate) Leptochloa chinensis (Leptochloa chinensis)	Activity level (growth inhibition rate) Abutilon theophrasti (Abutilon theophrasti)	Activity level (growth inhibition rate) Galium spurium (Galium spurium)	Activity level (growth inhibition rate) Setaria viridis (Setaria viridis)	Activity level (growth inhibition rate) Digitaria sanguinalis (Digitaria sanguinalis)	Rice, activity standard level 0-5 (safety) (rice (japonica rice))	Monochoria Vaginalis, activity standard level 0-5 (Monochoria vaginalis [2])	Indica rice, activity level (growth inhibition rate) (Indica rice; [5])	Japonica rice, activity level (growth inhibition rate) (Japonica rice; [5])	ALS resistant Cyperus iria, activity level (growth inhibition rate) [3, 5]	ALS resistant Echinochloa crusgalli, activity level (growth inhibition rate) [4, 5]	safety and selectivity in rice (rice)	Indica rice, activity level (growth inhibition rate) (Indica rice; 300 g/ha)	Japonica rice, activity level (growth inhibition rate) (Japonica rice; 300 g/ha)	ALS resistant Cyperus iria, activity level (growth inhibition rate) ([3]; 300 g/ha)	ALS resistant Echinochloa crusgalli, activity level (growth inhibition rate) ([4]; 300 g/ha)
COCCCSC(=O)C(C)Oc1nc(F)c(Cl)c(N)c1Cl (stereo not drawn) [Compound 88]	5 (Level 5: the growth inhibition rate is greater than 85%)	5 (Level 5: the growth inhibition rate is greater than 85%)	5 (Level 5: the growth inhibition rate is greater than 85%)	5 (Level 5: the growth inhibition rate is greater than 85%)	5 (Level 5: the growth inhibition rate is greater than 85%)	5 (Level 5: the growth inhibition rate is greater than 85%)	0 (Level 0: the growth inhibition rate is less than 5%)	5 (Level 5: the growth inhibition rate is greater than 85%)	0 (Level 0: the growth inhibition rate is less than 5%)	0 (Level 0: the growth inhibition rate is less than 5%)	5 (Level 5: the growth inhibition rate is greater than 85%)	5 (Level 5: the growth inhibition rate is greater than 85%)	–	–	–	–	–
CC(C)=NOCCSC(=O)C(C)Oc1nc(F)c(Cl)c(N)c1Cl (stereo not drawn) [Compound 97]	5 (Level 5: the growth inhibition rate is greater than 85%)	5 (Level 5: the growth inhibition rate is greater than 85%)	5 (Level 5: the growth inhibition rate is greater than 85%)	5 (Level 5: the growth inhibition rate is greater than 85%)	5 (Level 5: the growth inhibition rate is greater than 85%)	5 (Level 5: the growth inhibition rate is greater than 85%)	0 (Level 0: the growth inhibition rate is less than 5%)	5 (Level 5: the growth inhibition rate is greater than 85%)	0 (Level 0: the growth inhibition rate is less than 5%)	0 (Level 0: the growth inhibition rate is less than 5%)	5 (Level 5: the growth inhibition rate is greater than 85%)	5 (Level 5: the growth inhibition rate is greater than 85%)	–	–	–	–	–
COC(=O)OC(C)SC(=O)C(C)Oc1nc(F)c(Cl)c(N)c1Cl (stereo not drawn) [Compound 98]	5 (Level 5: the growth inhibition rate is greater than 85%)	5 (Level 5: the growth inhibition rate is greater than 85%)	5 (Level 5: the growth inhibition rate is greater than 85%)	5 (Level 5: the growth inhibition rate is greater than 85%)	5 (Level 5: the growth inhibition rate is greater than 85%)	5 (Level 5: the growth inhibition rate is greater than 85%)	0 (Level 0: the growth inhibition rate is less than 5%)	5 (Level 5: the growth inhibition rate is greater than 85%)	0 (Level 0: the growth inhibition rate is less than 5%)	0 (Level 0: the growth inhibition rate is less than 5%)	5 (Level 5: the growth inhibition rate is greater than 85%)	5 (Level 5: the growth inhibition rate is greater than 85%)	–	–	–	–	–
CSC(=O)C(C)Oc1nc(F)c(Cl)c(NCc2ccco2)c1Cl (stereo not drawn) [Compound 130]	5 (Level 5: the growth inhibition rate is greater than 85%)	5 (Level 5: the growth inhibition rate is greater than 85%)	5 (Level 5: the growth inhibition rate is greater than 85%)	5 (Level 5: the growth inhibition rate is greater than 85%)	5 (Level 5: the growth inhibition rate is greater than 85%)	5 (Level 5: the growth inhibition rate is greater than 85%)	0 (Level 0: the growth inhibition rate is less than 5%)	5 (Level 5: the growth inhibition rate is greater than 85%)	0 (Level 0: the growth inhibition rate is less than 5%)	0 (Level 0: the growth inhibition rate is less than 5%)	5 (Level 5: the growth inhibition rate is greater than 85%)	5 (Level 5: the growth inhibition rate is greater than 85%)	–	–	–	–	–
CC(Oc1nc(F)c(Cl)c(N)c1Cl)C(=O)O (stereo not drawn) [Control compound A, reference compound]	–	–	–	–	–	–	–	–	3 (Level 3: the growth inhibition rate is equal to or greater than 40% and less than 60%)	3 (Level 3: the growth inhibition rate is equal to or greater than 40% and less than 60%)	5 (Level 5: the growth inhibition rate is greater than 85%)	5 (Level 5: the growth inhibition rate is greater than 85%)	poor safety and low selectivity in rice	2 (Level 2: the growth inhibition rate is equal to or greater than 20% and less than 40%)	3 (Level 3: the growth inhibition rate is equal to or greater than 40% and less than 60%)	4 (Level 4: the growth inhibition rate is equal to or greater than 60% and less than 85%)	4 (Level 4: the growth inhibition rate is equal to or greater than 60% and less than 85%)

— patent US12391648B2, “Pyridyloxy thioester derivative and preparation method therefor, herbicidal composition, and application” (Qingdao Kingagroot Chemical Compound Co., Ltd., priority 2018, dated 2025)
